Measurements from patent US20240115557A1, “INHIBITORS OF RNA-GUIDED NUCLEASES AND USES THEREOF” (The Brigham and Women's Hospital, Inc., priority 2022, published 2024).

What was measured:
[1] = target: T1, SpCas9 (Streptococcus pyogenes serotype M1, UniProt Q99ZW2); test: Strand displacement assay (SDA) / cumulative activity assay (CAA), SpCas9 primary screen; format: biochemical; conditions: Primary Screen (150 min); for Normalized Z score 1: replicate 1; for Normalized Z score 2: replicate 2
Procedure, shortened: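 SpCas9:gRNA RNP in 20 mM Tris-HCl pH 7.5, 100 mM KCl, 5 mM MgCl2 was used at 10 nM (2× stock) with Alexa Fluor 647-labelled substrate and excess quencher strand (1 nM and 5 nM, 2× stocks). Fluorescence was read after 2.5 h at 37 °C, where cleavage lets the quencher strand anneal.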

[2] = target: T1, SpCas9; test: eGFP disruption assay, SpCas9, U2OS.eGFP.PEST cells; format: cell-based; conditions: for Normalized Z rep1 / Z score Rep1: replicate 1; for SpCas9 eGFP disruption Rep1: replicate 1, raw readout; for Normalized Z rep2 / Z socre Rep2: replicate 2; for SpCas9 eGFP disruption Rep2: replicate 2, raw readout
Procedure, shortened: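 Rescue of eGFP signal lost through Cas9-induced NHEJ indels serves as the inhibition read-out, after 24 h compound exposure (20 μM for hits, variable for dose-response). Editing was delivered by nucleofection into U2OS.eGFP.PEST cells as SpCas9/gRNA plasmids (300/30 ng) or RNP (10/12 pmol). Toxic and autofluorescent compounds were excluded.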

[3] = Cas9 = lower control, Ctrl = upper control
[4] = normalized, lower control about 0, upper control about 1

T1 sequence (Q99ZW2 whole entry): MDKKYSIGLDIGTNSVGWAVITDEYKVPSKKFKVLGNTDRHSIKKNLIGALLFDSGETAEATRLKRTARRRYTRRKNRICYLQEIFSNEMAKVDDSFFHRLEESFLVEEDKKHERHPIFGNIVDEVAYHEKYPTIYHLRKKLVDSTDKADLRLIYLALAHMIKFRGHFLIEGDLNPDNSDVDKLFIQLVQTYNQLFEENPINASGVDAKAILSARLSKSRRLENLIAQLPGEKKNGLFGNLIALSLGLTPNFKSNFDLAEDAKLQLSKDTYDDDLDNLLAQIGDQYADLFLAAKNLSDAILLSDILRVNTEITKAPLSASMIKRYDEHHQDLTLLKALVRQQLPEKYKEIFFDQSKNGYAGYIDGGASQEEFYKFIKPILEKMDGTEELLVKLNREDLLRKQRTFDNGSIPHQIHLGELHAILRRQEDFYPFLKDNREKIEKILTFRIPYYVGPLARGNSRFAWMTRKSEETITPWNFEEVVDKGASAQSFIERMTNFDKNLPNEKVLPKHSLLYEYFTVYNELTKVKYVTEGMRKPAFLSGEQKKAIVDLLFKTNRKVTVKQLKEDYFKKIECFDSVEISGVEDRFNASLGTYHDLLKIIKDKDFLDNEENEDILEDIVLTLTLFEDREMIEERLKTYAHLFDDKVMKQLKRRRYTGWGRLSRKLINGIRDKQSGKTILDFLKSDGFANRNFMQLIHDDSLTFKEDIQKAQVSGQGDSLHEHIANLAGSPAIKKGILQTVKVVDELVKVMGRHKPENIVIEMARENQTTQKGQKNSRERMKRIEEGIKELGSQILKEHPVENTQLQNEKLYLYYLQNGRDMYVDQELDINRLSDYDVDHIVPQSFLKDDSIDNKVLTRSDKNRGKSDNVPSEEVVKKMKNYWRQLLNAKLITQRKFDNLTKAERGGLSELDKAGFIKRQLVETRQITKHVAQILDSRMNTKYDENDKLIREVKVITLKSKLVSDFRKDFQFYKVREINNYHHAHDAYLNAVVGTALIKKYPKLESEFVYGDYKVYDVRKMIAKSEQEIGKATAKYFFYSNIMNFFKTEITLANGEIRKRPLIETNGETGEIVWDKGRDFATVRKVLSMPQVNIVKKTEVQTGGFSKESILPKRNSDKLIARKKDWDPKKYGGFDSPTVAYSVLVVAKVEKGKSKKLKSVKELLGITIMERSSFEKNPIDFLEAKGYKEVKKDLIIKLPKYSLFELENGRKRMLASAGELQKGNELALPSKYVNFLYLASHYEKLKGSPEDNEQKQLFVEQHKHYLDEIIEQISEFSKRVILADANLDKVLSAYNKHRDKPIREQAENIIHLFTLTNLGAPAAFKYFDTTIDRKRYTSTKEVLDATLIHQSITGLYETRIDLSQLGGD

Compound | Average Normalized Z score [1] | avg z score primary [1] | Normalized Z score 1 [1] | Normalized Z score 2 [1] | Normalized Z rep1 [2] | Z score Rep1 [2] | SpCas9 eGFP disruption Rep1 [2] | Normalized Z rep2 [2] | Z socre Rep2 [2] | SpCas9 eGFP disruption Rep2 [2] | Average Normalized Z score ([1]; average of replicates) | SpCas9 eGFP disruption Rep1 [2, 3] | Normalized Z rep1 [2, 4] | SpCas9 eGFP disruption Rep2 [2, 3] | Normalized Z rep2 [2, 4]
Cc1ccc(C(C)NC(=O)c2cccc(Oc3cc(-c4ccccc4)ncn3)c2)cc1 (stereo not drawn) [Compound L663-1062] | 0.28 | 5.51 | 0.28 | 0.29 | −0.10 | −0.64 | 74.182 | −0.07 | −0.70 | 74.913 | – | – | – | – | –
O=C(NCc1ccc2c(c1)OCO2)c1cccc(Oc2cc(-c3ccccc3)ncn2)c1 [Compound L663-1076] | 0.40 | 7.72 | 0.38 | 0.41 | −0.11 | −0.69 | 74.045 | −0.01 | −0.12 | 76.06 | – | – | – | – | –
COc1ccc(-c2cc(N3CCN(C(=O)c4ccc(C(C)(C)C)cc4)CC3)ncn2)cc1 [Compound M130-0012] | – | 20.61 | 0.28 | 0.28 | −0.10 | −0.67 | 74.104 | −0.03 | −0.27 | 75.755 | 0.28 | – | – | – | –
COc1ccc(C2CNC(=O)C2)cc1OC1CCCC1 (stereo not drawn) [Compound S2127] | – | 3.63 | 0.17 | 0.17 | −0.11 | −0.74 | 73.9 | −0.28 | −2.66 | 71.027 | 0.17 | – | – | – | –
Cc1ncc(-c2ccnc(Nc3ccc(S(C)(=O)=O)cc3)n2)n1C(C)C [Compound S2621] | – | 6.88 | 0.43 | 0.26 | −1.68 | −10.98 | 43.978 | −1.71 | −16.40 | 43.815 | 0.35 | – | – | – | –
Cc1[nH]nc2ccc(-c3cncc(OCC(N)Cc4ccccc4)c3)cc12 (stereo not drawn) [Compound S2670] | – | 3.67 | 0.17 | 0.21 | −3.44 | −22.46 | 10.416 | −3.50 | −33.58 | 9.7985 | 0.19 | – | – | – | –
Cl.Cl.Fc1cc(-c2cccc3ncc(-c4cnn(C5CCNCC5)c4)nc23)cc(F)c1CN1CCOCC1 [Compound S2686] | – | 7.03 | 0.37 | 0.35 | −0.73 | −4.74 | 62.196 | −0.57 | −5.44 | 65.516 | 0.36 | – | – | – | –
COc1ccc(-c2cc3c(C)nc(N)nc3n(C3CCC(OCCO)CC3)c2=O)cn1 (stereo not drawn) [Compound S2743] | – | 8.74 | 0.45 | 0.44 | −0.75 | −4.92 | 61.679 | −0.89 | −8.50 | 59.461 | 0.45 | – | – | – | –
COc1ccc(-c2ccc3ncc4c(c3c2)n(-c2ccc(N3CCNCC3)c(C(F)(F)F)c2)c(=O)n4C)cn1.O=C(O)C=CC(=O)O [Compound S2749] | – | 6.76 | 0.35 | 0.34 | −3.98 | −26.02 | 0 | −4.01 | −38.53 | 0 | 0.34 | – | – | – | –
Cc1c(P(=S)(N2CCOCC2)N2CCOCC2)cc(C#N)n1C [Compound T0503-9777] | – | 4.67 | 0.06 | 0.06 | – | 1.11 | – | – | 1.28 | – | 0.06 | 60.694 | 0.08 | 57.686 | 0.06
CCOC(=O)C1=C(C)NN=C(Nc2cccc(C)c2C)S1 [Compound T0519-6400] | – | 4.54 | 0.05 | 0.07 | – | 1.96 | – | – | 2.42 | – | 0.06 | 62.891 | 0.14 | 59.8 | 0.12
CCn1c(CCC(=O)O)nc2cc(S(N)(=O)=O)ccc21 [Compound T5380152] | – | 4.58 | 0.14 | 0.11 | – | −1.27 | – | – | 4.01 | – | 0.13 | 54.565 | −0.09 | 62.745 | 0.19
